Test results from patent US7132425B2, “5-substituted-six-membered heteroaromatic glucokinase activators” (Hoffmann-La Roche Inc., priority 2002, dated 2006).

How the values were obtained:
[1] = system: C57BL/6J mice; assay: Glucokinase activator in vivo screen (blood glucose after oral dosing); settings: oral gavage 50 mg/kg after two hour fast, readings 1, 2, 4 and 6 hours post dose, p≦0.05 for two consecutive assay time points
Experimental: Glucokinase Activator in vivo Screen Protocol: C57BL/6J mice are orally dosed via gavage with Glucokinase (GK) activator at 50 mg/kg body weight following a two hour fasting period. Blood glucose determinations are made five times during the six hour post-dose study period.
Mice (n=6) are weighed and fasted for a two hour period prior to oral treatment.

Row | melting point [°C] | SMILES | decrease in blood glucose compared to vehicle [1]
1 | 71 to 77 | CSc1cnc(NC(=O)[C@H](CC2CCCC2)c2ccc(S(C)(=O)=O)cc2)cn1 [Example 5, 3-Cyclopentyl-2(R)-(4-methanesulfonyl-phenyl)-N-(5-methylsulfanyl-pyrazin-2-yl)-propionamide] | –
2 | 100.2 | CN(C)S(=O)(=O)c1cnc(NC(=O)[C@H](CC2CCCC2)c2ccc(S(C)(=O)=O)c(Cl)c2)cn1 [Example 9, 2(R)-(3-Chloro-4-methanesulfonyl-phenyl)-3-cyclopentyl-N-(5-dimethylsulfamoyl-pyrazin-2-yl)-propionamide] | –
3 | 108 to 110 | CS(=O)(=O)Nc1cnc(NC(=O)[C@H](CC2CCCC2)c2ccc(S(C)(=O)=O)c(Cl)c2)cn1 [Example 13, 2(R)-(3-Chloro-4-methanesulfonyl-phenyl)-3-cyclopentyl-N-(5-methanesulfonylamino-pyrazin-2-yl)-propionamide] | –
4 | 70 to 75 | CSCc1cnc(NC(=O)C(CC2CCCC2)c2ccc(S(C)(=O)=O)c(Cl)c2)cn1 (centres unmarked) [Example 30, 2-(3-Chloro-4-methanesulfonyl-phenyl)-3-cyclopentyl-N-(5-methylsulfanylmethyl-pyrazin-2-yl)-propionamide] | –
5 | 88 to 91.5 | CN(C)Cc1cnc(NC(=O)[C@H](CC2CCCC2)c2ccc(S(C)(=O)=O)c(Cl)c2)cn1 [Example 32, 2(R)-(3-Chloro-4-methanesulfonyl-phenyl)-3-cyclopentyl-N-(5-dimethylaminomethyl-pyrazin-2-yl)-propionamide] | –
6 | 101.9 to 104.8 | Cc1nc(-c2cnc(NC(=O)C(CC3CCCC3)c3ccc(S(C)(=O)=O)c(Cl)c3)cn2)no1 (centres unmarked) [Example 33, 2-(3-Chloro-4-methanesulfonyl-phenyl)-3-cyclopentyl-N-[5-(5-methyl-[1,2,4]oxadiazyl-3-yl)-pyrazin-2-yl]-propionamide] | –
7 | 101 to 105 | Cc1noc(-c2cnc(NC(=O)[C@H](CC3CCCC3)c3ccc(S(C)(=O)=O)c(Cl)c3)cn2)n1 [Example 35, 2(R)-(3-Chloro-4-methanesulfonyl-phenyl)-3-cyclopentyl-N-[5-(3-methyl-[1,2,4]oxadiazol-5-yl)-pyrazin-2-yl]-propionamide] | –
8 | 75 to 76.7 | CSCc1cnc(NC(=O)[C@H](CC2CCCC2)c2ccc(S(C)(=O)=O)c(Cl)c2)cn1 [Example 36, 2(R)-(3-Chloro-4-methanesulfonyl-phenyl)-3-cyclopentyl-N-(5-methylsulfanylmethyl-pyrazin-2-yl)-propionamide] | –
9 | 130 to 133 | CS(=O)(=O)c1ccc(C(CC2CCCC2)C(=O)Nc2cnc(/C(C#N)=N\O)cn2)cc1Cl (centres unmarked) [Example 37, 2-(3-Chloro-4-methanesulfonyl-phenyl)-N-[5-(cyano-hydroxyimino-methyl)-pyrazin-2-yl]-3-cyclopentyl-propionamide] | –
10 | 102 to 106 | C[S+]([O-])Cc1cnc(NC(=O)[C@H](CC2CCCC2)c2ccc(S(C)(=O)=O)c(Cl)c2)cn1 (stereo partly drawn) [Example 38, 2(R)-(3-Chloro-4-methanesulfonyl-phenyl)-3-cyclopentyl-N-(5-methanesulfinylmethyl-pyrazin-2-yl)-propionamide] | –
11 | 77 to 80 | CC(=O)c1cnc(NC(=O)[C@H](CC2CCCC2)c2ccc(S(C)(=O)=O)c(Cl)c2)cn1 [Example 39, N-(5-Acetyl-pyrazin-2-yl)-2(R)-(3-chloro-4-methanesulfonyl-phenyl)-3-cyclopentyl-propionamide] | –
12 | 110 to 120 | CS(=O)(=O)c1ccc([C@@H](CC2CCCC2)C(=O)Nc2cnc(C(CO)CO)cn2)cc1Cl [Example 40, 2(R)-(3-Chloro-4-methanesulfonyl-phenyl)-3-cyclopentyl-N-[5-(2-hydroxy-1-hydroxymethyl-ethyl)-pyrazin-2-yl]-propionamide] | –
13 | – | CS(=O)(=O)c1ccc([C@@H](CC2CCCC2)C(=O)Nc2cnc(C#CC3(O)CCOCC3)cn2)cc1 [Example 46, 3-Cyclopentyl-N-5-[(4-hydroxy-tetrahydropyran-4-yl-ethynyl)pyrazin-2-yl]-2(R)-(4-methanesulfonyl-phenyl)-propionamide] | statistically significant (p≦0.05) decrease in blood glucose
14 | – | COCC#Cc1cnc(NC(=O)[C@H](CC2CCCC2)c2ccc(S(C)(=O)=O)c(Cl)c2)cn1 [Example 47, 2(R)-(3-Chloro-4-methanesulfonyl-phenyl)-3-cyclopentyl-N-[5-(3-methoxy-prop-1-ynyl)-pyrazin-2-yl]-propionamide] | statistically significant (p≦0.05) decrease in blood glucose
15 | – | CS(=O)(=O)c1ccc([C@@H](CC2CCCC2)C(=O)Nc2cnc(CCC3(O)CCOCC3)cn2)cc1Cl [Example 51, 2(R)-(3-Chloro-4-methanesulfonyl-phenyl)-3-cyclopentyl-N-[5-(4-hydroxy-tetrahydropyran-4-yl-ethyl)-pyrazin-2-yl]-propionamide] | statistically significant (p≦0.05) decrease in blood glucose
16 | – | CS(=O)(=O)c1ccc([C@@H](CC2CCCC2)C(=O)Nc2cnc(C#CCCO)cn2)cc1Cl [Example 53, 2(R)-(3-Chloro-4-methanesulfonyl-phenyl)-3-cyclopentyl-N-[5-(4-hydroxy-but-1-ynyl)-pyrazin-2-yl]-propionamide] | statistically significant (p≦0.05) decrease in blood glucose
17 | – | CS(=O)(=O)c1ccc([C@@H](CC2CCCC2)C(=O)Nc2cnc([C@H](O)CO)cn2)cc1Cl [Example 54, 2(R)-(3-Chloro-4-methanesulfonyl-phenyl)-3-cyclopentyl-N-[5-(1(S),2-dihydroxy-ethyl)-pyrazin-2-yl]-propionamide] | statistically significant (p≦0.05) decrease in blood glucose
18 | – | CS(=O)(=O)c1ccc([C@@H](CC2CCCC2)C(=O)Nc2cnc([C@@H](O)CO)cn2)cc1Cl [Example 55] | statistically significant (p≦0.05) decrease in blood glucose
19 | – | Cc1cc([C@@H](CC2CCCC2)C(=O)Nc2cnc(C#CC(C)(C)O)cn2)ccc1S(C)(=O)=O [Example 57, 3-Cyclopentyl-N-[5-(3-hydroxy-3-methyl-but-1-ynyl)-pyrazin-2-yl]-2(R)-(4-methanesulfonyl-3-methyl-phenyl)-propionamide] | statistically significant (p≦0.05) decrease in blood glucose
20 | – | Cc1cc([C@@H](CC2CCCC2)C(=O)Nc2cnc([C@H](O)CO)cn2)ccc1S(C)(=O)=O [Example 58, 3-Cyclopentyl-N-[5-1(S),2-dihydroxy-ethyl]-2(R)-(4-methanesulfonyl-3-methyl)-propionamide] | statistically significant (p≦0.05) decrease in blood glucose
21 | – | Cc1cc([C@@H](CC2CCCC2)C(=O)Nc2cnc(C#CC3(O)CCOCC3)cn2)ccc1S(C)(=O)=O [Example 59, 3-Cyclopentyl-N-[5-(4-hydroxy-tetrahydro-pyran-4-ylethynyl)-pyrazin-2-yl]-2(R)-(4-methanesulfonyl-3-methyl-phenyl)-propionamide] | statistically significant (p≦0.05) decrease in blood glucose
22 | – | CC(C)(O)C#Cc1cnc(NC(=O)[C@H](CC2CCCC2)c2ccc(S(C)(=O)=O)cc2)cn1 [Example 61, 3-Cyclopentyl-2(R)-(4-methanesulfonyl-phenyl)-N-[5-(3-hydroxy-3-methyl-but-1-ynyl)-pyrazin-2-yl]-propionamide] | statistically significant (p≦0.05) decrease in blood glucose
23 | – | CS(=O)(=O)c1ccc([C@@H](CC2CCCC2)C(=O)Nc2cnc(OCCO)cn2)cc1Cl [Example 62, 2(R)-(3-Chloro-4-methanesulfonyl-phenyl)-3-cyclopentyl-N-[5-(2-hydroxy-ethoxy)-pyrazin-2-yl]-propionamide] | statistically significant (p≦0.05) decrease in blood glucose
24 | – | CS(=O)(=O)c1ccc([C@@H](CC2CCCC2)C(=O)Nc2ccc(C3CCCO3)cn2)cc1Cl (stereo partly drawn) [Example 69, 2(R)-(3-Chloro-4-methanesulfonyl-phenyl)-3-cyclopentyl-N-[5-(tetrahydro-furan-2-yl)-pyridin-2-yl]-propionamide] | statistically significant (p≦0.05) decrease in blood glucose
25 | – | CS(=O)(=O)c1ccc([C@@H](CC2CCCC2)C(=O)Nc2cnc(-c3ccco3)cn2)cc1Cl [Example 70, 2(R)-(3-Chloro-4-methanesulfonyl-phenyl)-3-cyclopentyl-N-(5-furan-2-yl-pyrazin-2-yl)-propionamide] | statistically significant (p≦0.05) decrease in blood glucose
26 | – | CS(=O)(=O)c1ccc([C@@H](CC2CCCC2)C(=O)Nc2cnc(NCCO)cn2)cc1Cl [Example 73, 2(R)-(3-Chloro-4-methanesulfonyl-phenyl)-3-cyclopentyl-N-[5-(2-hydroxy-ethylamino)-pyrazin-2-yl]-propionamide] | statistically significant (p≦0.05) decrease in blood glucose
27 | – | CS(=O)(=O)c1ccc([C@@H](CC2CCCC2)C(=O)Nc2cnc(C3=CCCCO3)cn2)cc1Cl [Example 75, 2(1R)-(3-Chloro-4-methanesulfonyl-phenyl)-3-cyclopentyl-N-[5-(5,6-dihydro-4H-pyran-2-yl)-pyrazin-2-yl]-propionamide] | statistically significant (p≦0.05) decrease in blood glucose
28 | 96 to 102 | CS(=O)(=O)c1ccc([C@@H](CC2CCCC2)C(=O)Nc2cnc(-c3ccsc3)cn2)cc1Cl [Example 77, 2(R)-(3-Chloro-4-methanesulfonyl-phenyl)-3-cyclopentyl-N-(5-thiophen-3-yl-pyrazin-2-yl)-propionamide] | –
29 | 101 to 107 | CS(=O)(=O)c1ccc([C@@H](CC2CCCC2)C(=O)Nc2cnc(-c3ccc(C#N)s3)cn2)cc1Cl [Example 79, 2(R)-(3-Chloro-4-methanesulfonyl-phenyl)-N-[5-(5-cyano-thiophen-2-yl)-pyrazin-2-yl]-3-cyclopentyl-propionamide] | –
